Source: patent publication US10022308B2, “Wipe and methods for improving skin health” (Kimberly-Clark Worldwide, Inc., priority 2003, dated 2018)

Assays:
[1] = system: P. mirabilis (ATCC #29906); assay: Adhesion assay for P. mirabilis on synthetic skin substrate; assay type: cell-based, Proteus mirabilis; settings: 50 μl of 10% botanical stock in TSB + 50 μl bacteria, 3 h room temperature, VITRO-SKIN, AlamarBlue; >100% more cells adhered than control
Protocol: (§1) The protocols for testing the ability of botanical compounds to elicit any of these desired effects are set forth in the Examples. In general, the ability of a botanical compound to affect the adherence of an organism to skin is determined by comparing the adherence of the organism to skin in the presence of the botanical compound, to the adherence of the organism to skin in the absence of the botanical compound. If the amount of adherence in the presence of the botanical compound is 150% or greater than the amount of adherence in the absence of the botanical compound, then the botanical compound is an adherence promoter for that organism. If the amount of adherence in the presence of the botanical compound is 50% or less than the amount of adherence in the absence of the botanical compound, then the botanical compound is an anti-adherent for that organism.
(§2) Each of the botanical compounds listed in Table 1 was screened to measure the effect of the compound on the adhesion of P. mirabilis, S. epidermidis, or P. aeruginosa to the skin. […]
(§3) The next day, the optical density (650 nm) of the TSB culture was read. […] AlamarBlue® levels were read (emission levels read at 590 nm) in an Ascent plate reader (excitation level of 544 nm) at 1 and 2 hours. When not being read, the plate was incubated at 37° C. with a lid. […]

[2] = system: P. aeruginosa (ATCC #27853); assay: Adhesion assay for P. aeruginosa on synthetic skin substrate; assay type: cell-based, Pseudomonas aeruginosa; settings: 50 μl of 10% botanical stock in TSB + 50 μl bacteria, 3 h room temperature, VITRO-SKIN, AlamarBlue
Protocol: as §1, §2, §3

[3] = system: S. epidermidis (ATCC #12228); assay: Adhesion assay for S. epidermidis on synthetic skin substrate; assay type: cell-based, Staphylococcus epidermidis; settings: 50 μl of 10% botanical stock in TSB + 50 μl bacteria, 3 h room temperature, VITRO-SKIN, AlamarBlue
Protocol: as §1, §2, §3

[4] = system: C. albicans (ATCC #10231); assay: Adhesion assay for Candida albicans on synthetic skin substrate; assay type: cell-based; settings: 50 μl of 10% botanical stock in TSB + 50 μl yeast, 3 h at 33° C., VITRO-SKIN, AlamarBlue
Protocol: as §1
(§4) Results are given in Table 1, which gives the percent adherence to the skin of P. mirabilis, S. epidermidis, P. aeruginosa, L. acidophilus, and C. albicans for the various botanical compound samples, relative to the control. The percentage is based on the number of cells that adhered to the skin for the botanical samples as compared to the number of cells that adhered to the skin in the control, as determined by the AlamarBlue® levels. […]
The next day, the optical density (650 nm) of the SDB culture was read. […]

[5] = system: Lactobacillus acidophilus (ATCC #:314); assay: Adhesion assay for Lactobacillus acidophilus on synthetic skin substrate; assay type: cell-based; settings: 50 μl of 10% botanical stock in TSB + 50 μl bacteria, 3 h at 33° C. or 37° C., VITRO-SKIN, AlamarBlue
Protocol: as §1, with “If the amount of adherence in the presence of the botanical compound is 50% or less than the amount of adherence in the absence of the botanical compound, then the botanical compound is an anti-adherent for that organism.” left out
as §4
The next day, the optical density (650 nm) of the Lactobacilli broth culture was read. […] AlamarBlue® levels were read (emission levels read at 590 nm) in an Ascent plate reader (excitation level of 544 nm) at 2 and 3 hours. […]

## CCCC(O)CO (centres unmarked) [Hydrolite-5]
[1]
  percent adherence to the skin of P. mirabilis (PM) relative to the control: 9.2%
[2]
  percent adherence to the skin of P. aeruginosa (PA) relative to the control: 5.1%
[3]
  percent adherence to the skin of S. epidermidis (SE) relative to the control: 141.5%
[4]
  percent adherence to the skin of C. albicans (CA) relative to the control: 3.9%
[5]
  percent adherence to the skin of L. acidophilus (LA) relative to the control: 169.66%
